Our source for the GI50 and TGI values is PubChem BioAssay (NCI).

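Five concentrations, 48 hours, 96-well plates. GI50 marks 50% less growth. The concentration for full growth arrest is given as TGI.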

Assay in all cases: NCI anticancer screen, dose series, 48 h
For assay [1], the system named is HCT-116 colon.
In assay [2] the test system is HOP-62 NSCLC.
The test system of assay [3] is HS 578T breast.
In assay [4] the test system is IGROV1 ovarian.
In assay [5] the test system is K-562 leukemia.
Assay [6] deals with PC-3 prostate.
Assay [7] relates to SK-MEL-5 melanoma.
The test system of assay [8] is U251 CNS.
The test system of assay [9] is UACC-257 melanoma.
The test system of assay [10] is HL-60(TB) leukemia.

In the case of `COC(=O)NC/C=C\c1nc(CC/C=C\C(=O)OC2CC3CC(=O)O[C@H](/C=C/CC(C)C)C[C@H]4CCC(C)C(C[C@H](OC)CC(C2)O3)O4)co1` (stereo partly drawn), the GI50 was below 0.01 µM in assay [1]; below 0.01 µM in [2]; 18.2 µM in assay [3]; 2.51 µM in assay [4]; below 0.01 µM in assay [5]; 0.218 µM in assay [6]. The GI50 in assay [7] was below 0.01 µM; in assay [8], 1.42 µM; in [9], above 100 µM. Further, the TGI is 37.5 µM in assay [1]; 62.7 µM in [2]; above 100 µM in assay [3]; above 100 µM in assay [4]; 20.3 µM in assay [5]; above 100 µM in [6]. Also, the TGI in [7] was 19.3 µM; in [8], above 100 µM; in assay [9] it was above 100 µM.
As to `S=c1nc(Oc2ccc(Cl)c(Cl)c2)[nH]c(=S)[nH]1`, the TGI in [1] is above 60.9 µM; in assay [10], above 100 µM; in assay [2], above 67.6 µM; in [3], above 100 µM; in [4], above 92.3 µM; in assay [5], above 31.6 µM. Besides, the TGI in assay [7] was above 55.6 µM; in assay [8], 99.4 µM; in assay [9] it was above 80 µM.
Turning to `CCCc1ccc(S(=O)(=O)N[C@H]2CC[C@H]3[C@@H]4CCc5cc(O)ccc5[C@H]4CC[C@]23C)cc1`, the GI50 in assay [1] was 1.78 µM; in [2] it was 4.65 µM; in [3] it was 3.33 µM; in assay [4], 3.76 µM; in assay [5], 3.06 µM; in assay [6], 2.52 µM. Also, the GI50 was 1.63 µM in assay [7], 1.95 µM in assay [8] and 3.83 µM in assay [9]. Also, the TGI came out at 3.27 µM in assay [1]; 15.8 µM in [2]; 12.9 µM in [3]; 14.3 µM in assay [4]; 12 µM in assay [5]; 11.7 µM in assay [6]. Besides, the TGI in [7] worked out at 3.01 µM; in [8] it was 4.25 µM; in assay [9] it was 15.7 µM.
`Fc1ccc(Oc2nccc(-c3c(-c4ccc(F)cc4)ncn3C3CCNCC3)n2)cc1`: the GI50 in [1] is above 25 µM; in assay [10], above 25 µM; in assay [2], above 25 µM; in assay [3] it was above 24 µM; in assay [4], 19.2 µM; in assay [5] it was above 25 µM. Besides, the GI50 in assay [6], in assay [7] and in assay [8] was above 25 µM throughout. Also, the TGI in [1], in assay [10], in assay [2], in assay [3], in [4] and in assay [5] was above 25 µM throughout. The TGI in assay [6], in assay [7] and in assay [8] was above 25 µM throughout.
Turning to `C=C1C(=O)O[C@@H]2C1C[C@@H](O)/C(C)=C/C/C=C(\C)CCC[C@H](C)[C@H]2OC(C)=O` (stereo partly drawn), the GI50 in [1] was 14.1 µM; in [2] it was 45.4 µM; in [3], 29.1 µM; in [4] it was 8.84 µM; in [6] it was 21.4 µM; in assay [7], 17.7 µM. Further, the GI50 was 23.8 µM in assay [8] and 36.4 µM in assay [9]. The TGI was 27 µM in [1]; above 100 µM in assay [2]; 76 µM in assay [3]; 32.7 µM in assay [4]; 51.3 µM in assay [6]; 35.5 µM in assay [7]. In addition, the TGI is 52.4 µM in [8] and above 100 µM in assay [9].
Turning to `COc1ccc(/C=C2\CN(C(=O)C(Cl)Cl)C/C(=C\c3ccc(OC)c(OC)c3)C2=O)cc1OC`, the GI50 was 0.0306 µM in assay [1]; 0.221 µM in assay [10]; 0.883 µM in [2]; 0.321 µM in assay [4]; 0.0366 µM in assay [5]; 0.301 µM in [6]. Besides, the results for the GI50 in assay [7] and in assay [8] were 0.199 µM and 0.0405 µM, respectively. For the same compound, the TGI in [1] is 0.103 µM; in assay [10], 0.711 µM; in assay [4], 1.75 µM; in assay [5], above 100 µM; in assay [6] it was 2.4 µM; in assay [7], 0.54 µM. For the same compound, the TGI in assay [8] was 1.12 µM.
For `CC1(C)COCN1COC1CCCCC1`, the TGI in [1], in [2], in [3], in assay [4], in assay [5] and in assay [6] was above 100 µM in each case. The TGI in assay [7], in assay [8] and in assay [9] was above 100 µM each time.
Turning to `N#CC1=C(N)OC2=C(COc3ccc(F)cc32)C1c1ccc(Cl)cc1` (stereo not drawn), the GI50 in assay [1] is 36.3 µM; in [10], 33.5 µM; in assay [2] it was 38.3 µM; in assay [4] it was 70.3 µM; in [5], 27.3 µM; in assay [6], 32.3 µM. In addition, the figures for the GI50 in assay [7], in [8] and in assay [9] were 20.4 µM, 32.6 µM and 41.6 µM, respectively. The TGI is above 100 µM in assay [1]; 86 µM in [10]; above 100 µM in assay [2]; above 100 µM in [4]; 82 µM in [5]; above 100 µM in assay [6]. Moreover, the figures for the TGI in [7], in assay [8] and in [9] were 58.7 µM, above 100 µM and above 100 µM, respectively.
Turning to `O=C(Nc1ccc(-n2cc(-c3ccncc3)c(-c3ccc(Cl)c(O)c3)n2)cc1)Nc1cc(C(F)(F)F)cc(C(F)(F)F)c1`, the GI50 is 1.61 µM in assay [1]; 2.94 µM in assay [10]; 1.8 µM in assay [2]; 2.04 µM in [3]; 2.04 µM in [4]; 2.05 µM in assay [6]. In addition, the GI50 in assay [7] was 1.67 µM; in assay [8], 1.51 µM; in assay [9], 2.01 µM. Besides, the TGI in [1] is 3.14 µM; in assay [10], 8.84 µM; in assay [2], 3.66 µM; in assay [3] it was 6.59 µM; in [4], 4.45 µM; in [6] it was 6.1 µM. Moreover, the results for the TGI in assay [7], in assay [8] and in assay [9] were 3.41 µM, 2.98 µM and 5.22 µM, respectively.
`O=c1[nH]c2nccnc2c2c([N+](=O)[O-])cccc12`: the TGI in assay [1], in [10], in [2], in assay [3], in assay [4] and in [5] was above 100 µM throughout. Also, the TGI in [6], in assay [7] and in assay [8] was above 100 µM each time.
